From patent US5447720A, “Composition and method for treatment of hemoglobinopathies” (Fadulu; Sunday O., priority 1993, dated 1995)

How the values were obtained:
[1] = test system: sickling; settings: words; cited from earlier work
[2] = test system: HbF; settings: sickle cell patients; words; cited from earlier work
[3] = test system: sickling; experiment: Anti-sickling activity of acid components (test not specified); settings: words

O=C(O)c1ccccc1CO [2-hydroxymethylbenzoic acid]
in vitro anti-sickling effect (literature) [1]: in vitro nonsickling characteristics

Nc1ncn([C@@H]2O[C@H](CO)[C@@H](O)[C@H]2O)c(=O)n1 [5-azacytidine]
effect on HbF levels (literature) [2]: increased HbF levels

CCCCC/C=C\C/C=C\CCCCCCCC(=O)O [linoleic]
anti-sickling activity of less polar acids [3]: little if any anti-sickling activity

CC/C=C\C/C=C\C/C=C\CCCCCCCC(=O)O [linolenic]
anti-sickling activity of less polar acids [3]: little if any anti-sickling activity

CCCCCCCC/C=C\CCCCCCCC(=O)O [oleic acids]
anti-sickling activity of less polar acids [3]: little if any anti-sickling activity

CCCCCCCCCCCCCCCCCC(=O)O [stearic]
anti-sickling activity of less polar acids [3]: little if any anti-sickling activity

arginine butyrate
effect on HbF levels (literature) [2]: rapid stimulation of the HbF
